The test system of assay [1] is KB-V1. Description: Induction of oxidative stress-dependent lysosomal membrane permeabilization in human KBV1 cells over expressing P-gp assessed as decrease in cathepsin D and LAMP2 lysosomal colocalization at 25 uM after 24 hrs by TexasRed staining based immunofluorescence microscopic analysis. Format: functional, cell-based.
In assay [2] the test system is KBV1. Description: Induction of P-gp-mediated lysosomal membrane permeabilization in human KBV1 cells over expressing P-gp assessed as cathepsin D release from lysosome to cytosol at 25 uM after 24 hrs by TexasRed staining based immunofluorescence microscopic analysis. It counts as cell-based.
The subject of assay [3] is KB 3-1. Description: (§1) Antiproliferative activity against human KB3-1 cells after 24 hrs by MTT assay. Format: functional, cell-based. Background: Formazan colour is commonly taken as a measure of viable cells.
Assay [4] is filed under the species Homo sapiens. Description: Substrate activity at P-gp (unknown origin) in P-gp enriched membranes assessed as increase in ATPase activity at 50 uM in presence of Mg2-ATP after 40 mins by luciferase reporter gen assay relative to control. It counts as cell membranes. A general note: In a reporter assay the amount or activity of a reporter protein is the signal.

The test system of assay [5] is KBV1. Description: Induction of P-gp-mediated lysosomal membrane permeabilization in human KBV1 cells over expressing P-gp assessed as increase in LAMP2 fluorescence at 25 uM after 24 hrs by TexasRed staining based immunofluorescence microscopic analysis. Format: cell-based.
The subject of assay [6] is KB 3-1. Description: (§2) Antiproliferative activity against human KB3-1 cells after 24 hrs in presence of P-gp inhibitor elacridar by MTT assay. Format: functional, cell-based.
The test system of assay [7] is KB-V1. Description: Induction of copper-dependent lysosomal membrane permeabilization in human KBV1 cells over expressing P-gp assessed as decrease in cathepsin D and LAMP2 lysosomal colocalization at 25 uM after 24 hrs by TexasRed staining based immunofluorescence microscopic analysis. Format: functional, cell-based.
Assay [8] is described as follows: Selectivity ratio of IC50 for human KB31 cells to IC50 for human KBV1 cells over expressing P-gp. Format: functional.
For assay [9], the system named is KB-V1. Description: Induction of copper-dependent lysosomal membrane permeabilization in human KBV1 cells over expressing P-gp assessed as decrease in cathepsin D and LAMP2 lysosomal colocalization at 10 uM after 24 hrs by TexasRed staining based immunofluorescence microscopic analysis. Format: functional, cell-based.
The subject of assay [10] is KB-V1. Description: Induction of oxidative stress-dependent lysosomal membrane permeabilization in human KBV1 cells over expressing P-gp assessed as decrease in cathepsin D and LAMP2 lysosomal colocalization at 10 uM after 24 hrs by TexasRed staining based immunofluorescence microscopic analysis. Format: functional, cell-based.
The subject of assay [11] is KBV1. Description: Induction of P-gp-mediated lysosomal membrane permeabilization in human KBV1 cells over expressing P-gp assessed as cathepsin D release from lysosome to cytosol at 10 uM after 24 hrs by TexasRed staining based immunofluorescence microscopic analysis. It counts as cell-based.
The test system of assay [12] is KBV1. Description: Induction of P-gp-mediated lysosomal membrane permeabilization in human KBV1 cells over expressing P-gp assessed as increase in LAMP2 fluorescence at 10 uM after 24 hrs by TexasRed staining based immunofluorescence microscopic analysis. Format: cell-based.
For assay [13], the system named is KB-V1. Description: (§3) Antiproliferative activity against human KBV1 cells over expressing P-gp after 24 hrs in presence of P-gp inhibitor elacridar by MTT assay. Format: functional, cell-based.
Assay [14] is described as follows: as §3. Format: functional, cell-based. To be noted: KB-V1, 24 h.
Assay [15] is described as follows: Antiproliferative activity against human KBV1 cells over expressing P-gp after 24 hrs by MTT assay. It counts as functional, cell-based. The note with it: KB-V1, 24 h.
Assay [16] can be described thus: as §1. It counts as functional, cell-based. To be noted: KB 3-1, 24 h.
Assay [17] is described as follows: as §2. Format: functional, cell-based. The note with it: KB 3-1, 24 h.
The species entered for assay [18] is Homo sapiens. Description: Inhibition of P-gp (unknown origin) in P-gp enriched membranes assessed as […] at 100 uM in presence of Mg2-ATP after 40 mins by luciferase reporter gen assay relative to control. It counts as cell membranes.

Calls of active or inactive are those of the source. The calls are words filed in the database; no cut-off is given here.

With `CN(C(=S)NN=C(c1ccccn1)c1ccccn1)C1CCCCC1`, the outcome in assay [1], in [2], in assay [3], in assay [5], in assay [6] and in assay [7] was Active. Also, the fold change (FC) in [4] came out at 7.4. Besides, the “Ratio IC50” value in [8] is 8.1.
As to `CN(C)C(=S)NN=C(c1ccccn1)c1ccccn1`, the result in assay [9], in assay [10], in assay [3], in assay [6], in assay [11] and in assay [12] was Active. For the same molecule, the fold change (FC) in assay [4] worked out at 6.6.
Regarding `CN(C)C(=S)N/N=C(/c1ccccc1)c1ccccn1`, the outcome in assay [1], in assay [2], in [3], in [5], in assay [6] and in [7] was Active. For the same molecule, in [4], the fold change (FC) is 7.9. For the same molecule, the “Ratio IC50” value in assay [8] is given as 13.2.
For `C/C(=N/NC(=S)N(C)C)c1ccccn1`, the outcome in assay [13], in assay [3] and in [6] was Active. The fold change (FC) in [4] was 5.1. In addition, the “Ratio IC50” value in assay [8] was 2.1.
As usually defined, the IC50 is the concentration that gives 50% inhibition. As to `CN(/N=C(\c1ccccc1)c1ccccn1)C(N)=S`, the IC50 in assay [14], in assay [15], in assay [16] and in [17] was greater than 800 µM in each case. For the same molecule, the fold change (FC) in [4] came to 5.2.
On to `NC(=S)N/N=C/c1ncccc1N` [TRIAPINE], for which the IC50 in [14], in [15], in assay [16] and in assay [17] was greater than 800 µM throughout. Besides, the fold change (FC) in assay [4] was 4.6.
For the molecule SODIUM ORTHOVANAD, the fold change (FC) in assay [18] was determined as 11.9.

The record behind these values is ChEMBL document CHEMBL3856230, “Structure-Activity Relationships of Di-2-pyridylketone, 2-Benzoylpyridine, and 2-Acetylpyridine Thiosemicarbazones for Overcoming Pgp-Mediated Drug Resistance” (J Med Chem, 2016).
